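Grown in 96-well plates, cells were treated for 48 hours with each compound at five concentrations. Insufficient inhibition: endpoint recorded as highest concentration tested. TGI denotes the concentration required for complete inhibition of growth.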
Assays:
Assay in all cases: growth of human tumour cells (NCI), 48 h
SF-295 CNS = test system: SF-295 CNS
SN12C renal = test system: SN12C renal
T-47D breast = test system: T-47D breast
SK-MEL-28 melanoma = test system: SK-MEL-28 melanoma
PC-3 prostate = test system: PC-3 prostate
BT-549 breast = test system: BT-549 breast
OVCAR-8 ovarian = test system: OVCAR-8 ovarian
CCRF-CEM leukemia = test system: CCRF-CEM leukemia
MDA-MB-435 = test system: MDA-MB-435
IGROV1 ovarian = test system: IGROV1 ovarian
NCI/ADR-RES ovarian = test system: NCI/ADR-RES ovarian
MOLT-4 leukemia = test system: MOLT-4 leukemia
U251 CNS = test system: U251 CNS
KM12 colon = test system: KM12 colon
NCI-H460 lung = test system: NCI-H460 lung
A549 NSCLC = test system: A549 NSCLC
MCF7 breast = test system: MCF7 breast
DU-145 prostate = test system: DU-145 prostate
M14 melanoma = test system: M14 melanoma
SK-OV-3 ovarian = test system: SK-OV-3 ovarian
HCC-2998 colon = test system: HCC-2998 colon
SNB-75 CNS = test system: SNB-75 CNS
UO-31 renal = test system: UO-31 renal
786-0 renal = test system: 786-0 renal
UACC-257 melanoma = test system: UACC-257 melanoma
SK-MEL-2 melanoma = test system: SK-MEL-2 melanoma
RPMI-8226 leukemia = test system: RPMI-8226 leukemia
SW-620 colon = test system: SW-620 colon
CAKI-1 renal = test system: CAKI-1 renal
SNB-19 CNS = test system: SNB-19 CNS
HCT-15 colon = test system: HCT-15 colon
K-562 leukemia = test system: K-562 leukemia
TK-10 renal = test system: TK-10 renal
HOP-62 NSCLC = test system: HOP-62 NSCLC
A498 renal = test system: A498 renal
MDA-N = test system: MDA-N
COLO 205 colon = test system: COLO 205 colon
EKVX NSCLC = test system: EKVX NSCLC
OVCAR-5 ovarian = test system: OVCAR-5 ovarian
OVCAR-3 ovarian = test system: OVCAR-3 ovarian
MALME-3M melanoma = test system: MALME-3M melanoma
HOP-92 NSCLC = test system: HOP-92 NSCLC
HS 578T breast = test system: HS 578T breast
NCI-H226 lung = test system: NCI-H226 lung
UACC-62 melanoma = test system: UACC-62 melanoma
ACHN renal = test system: ACHN renal
SF-268 CNS = test system: SF-268 CNS
SK-MEL-5 melanoma = test system: SK-MEL-5 melanoma
SF-539 CNS = test system: SF-539 CNS
HL-60(TB) leukemia = test system: HL-60(TB) leukemia
NCI-H522 lung = test system: NCI-H522 lung
LOX IMVI melanoma = test system: LOX IMVI melanoma
NCI-H23 lung = test system: NCI-H23 lung
HCT-116 colon = test system: HCT-116 colon
HT29 colon = test system: HT29 colon
MDA-MB-231 breast = test system: MDA-MB-231 breast
RXF 393 renal = test system: RXF 393 renal
OVCAR-4 ovarian = test system: OVCAR-4 ovarian

For `CC(=O)OC1CC(OC2C(O)CC(OC3C(O)CC(OC4CCC5(C)C(CCC6C5CCC5(C)C(C7=CC(=O)OC7)C(O)CC65O)C4)OC3C)OC2C)OC(C)C1OC1OC(CO)C(O)C(O)C1O` (stereo not given), the TGI (SF-295 CNS) was 1.43 µM, the TGI (SN12C renal) was 1.32 µM and the TGI (T-47D breast) was 3.32 µM. The TGI (SK-MEL-28 melanoma) was 3.61 µM, the TGI (PC-3 prostate) was 1.55 µM and the TGI (BT-549 breast) was 1.26 µM. For the same compound, the TGI (OVCAR-8 ovarian) was 1.56 µM, the TGI (CCRF-CEM leukemia) was over 100 µM and the TGI (MDA-MB-435) was 2.08 µM. The TGI (IGROV1 ovarian) was 3.58 µM, the TGI (NCI/ADR-RES ovarian) was 0.755 µM and the TGI (MOLT-4 leukemia) was over 100 µM. For the same compound, the TGI (U251 CNS) was 1.45 µM, the TGI (KM12 colon) was 1.94 µM and the TGI (NCI-H460 lung) was 0.491 µM. For the same compound, the TGI (A549 NSCLC) was 0.244 µM, the TGI (MCF7 breast) was 15.8 µM and the TGI (DU-145 prostate) was 0.684 µM. It also gave a TGI (M14 melanoma) of 2.31 µM, a TGI (SK-OV-3 ovarian) of 2.1 µM and a TGI (HCC-2998 colon) of 4.09 µM. The TGI (SNB-75 CNS) was 2.97 µM, the TGI (UO-31 renal) was 1.46 µM and the TGI (786-0 renal) was 0.943 µM. It also gave a TGI (UACC-257 melanoma) of 1.88 µM, a TGI (SK-MEL-2 melanoma) of 2.16 µM and a TGI (RPMI-8226 leukemia) of 5.7 µM. The TGI (SW-620 colon) was 1.45 µM, the TGI (CAKI-1 renal) was 0.461 µM and the TGI (SNB-19 CNS) was 2.19 µM. For the same compound, the TGI (HCT-15 colon) was 1.16 µM, the TGI (K-562 leukemia) was over 100 µM and the TGI (TK-10 renal) was 2.14 µM. It also gave a TGI (HOP-62 NSCLC) of 0.483 µM, a TGI (A498 renal) of 2.13 µM and a TGI (MDA-N) of 1.77 µM. For the same compound, the TGI (COLO 205 colon) was 2.13 µM, the TGI (EKVX NSCLC) was 0.803 µM and the TGI (OVCAR-5 ovarian) was 1.72 µM. It also gave a TGI (OVCAR-3 ovarian) of 1.24 µM, a TGI (MALME-3M melanoma) of 1.85 µM and a TGI (HOP-92 NSCLC) of 3.17 µM. It also gave a TGI (HS 578T breast) of over 100 µM, a TGI (NCI-H226 lung) of 2.66 µM and a TGI (UACC-62 melanoma) of 1.98 µM. For the same compound, the TGI (ACHN renal) was 0.942 µM, the TGI (SF-268 CNS) was 2.48 µM and the TGI (SK-MEL-5 melanoma) was 1.06 µM. The TGI (SF-539 CNS) was 0.421 µM, the TGI (HL-60(TB) leukemia) was 0.577 µM and the TGI (NCI-H522 lung) was 1.2 µM. For the same compound, the TGI (LOX IMVI melanoma) was 1.14 µM, the TGI (NCI-H23 lung) was 0.424 µM and the TGI (HCT-116 colon) was 0.91 µM. The TGI (HT29 colon) was 1.76 µM and the TGI (MDA-MB-231 breast) was 6.42 µM.

With `Clc1ccc2c(NCCNC3CCCCC3)ccnc2c1` the TGI (SF-295 CNS) was 10.3 µM, the TGI (SN12C renal) was 33.8 µM and the TGI (T-47D breast) was 64.6 µM. The TGI (SK-MEL-28 melanoma) was 3.62 µM, the TGI (PC-3 prostate) was 33.9 µM and the TGI (BT-549 breast) was 23.3 µM. The TGI (OVCAR-8 ovarian) was 31.9 µM, the TGI (CCRF-CEM leukemia) was 9.77 µM and the TGI (MDA-MB-435) was 9.92 µM. For the same compound, the TGI (IGROV1 ovarian) was 27.8 µM, the TGI (NCI/ADR-RES ovarian) was 33.7 µM and the TGI (MOLT-4 leukemia) was 18.6 µM. The TGI (U251 CNS) was 17.7 µM, the TGI (KM12 colon) was 31 µM and the TGI (A549 NSCLC) was 31.2 µM. For the same compound, the TGI (MCF7 breast) was 15.9 µM, the TGI (DU-145 prostate) was 36.7 µM and the TGI (M14 melanoma) was 3.41 µM. It also gave a TGI (SK-OV-3 ovarian) of 37.8 µM, a TGI (SNB-75 CNS) of 23.4 µM and a TGI (UO-31 renal) of 11.2 µM. The TGI (786-0 renal) was 20.9 µM, the TGI (SK-MEL-2 melanoma) was 11 µM and the TGI (RPMI-8226 leukemia) was 17 µM. It also gave a TGI (SW-620 colon) of 29.7 µM, a TGI (CAKI-1 renal) of 24.3 µM and a TGI (SNB-19 CNS) of 35.5 µM. For the same compound, the TGI (HCT-15 colon) was 20.4 µM, the TGI (K-562 leukemia) was 6.13 µM and the TGI (TK-10 renal) was 7.15 µM. For the same compound, the TGI (HOP-62 NSCLC) was 27.4 µM, the TGI (A498 renal) was 5.85 µM and the TGI (MDA-N) was 5.42 µM. For the same compound, the TGI (COLO 205 colon) was 2.79 µM, the TGI (EKVX NSCLC) was 15.7 µM and the TGI (OVCAR-5 ovarian) was 30.5 µM. For the same compound, the TGI (OVCAR-3 ovarian) was 37.5 µM, the TGI (MALME-3M melanoma) was 3.64 µM and the TGI (RXF 393 renal) was 27.1 µM. It also gave a TGI (HOP-92 NSCLC) of 22.5 µM, a TGI (OVCAR-4 ovarian) of 46.5 µM and a TGI (HS 578T breast) of 8.15 µM. The TGI (NCI-H226 lung) was 24.8 µM, the TGI (UACC-62 melanoma) was 15.8 µM and the TGI (ACHN renal) was 25.3 µM. For the same compound, the TGI (SF-268 CNS) was 22.8 µM, the TGI (SK-MEL-5 melanoma) was 3.16 µM and the TGI (HL-60(TB) leukemia) was 6.63 µM. The TGI (NCI-H522 lung) was 7.46 µM, the TGI (LOX IMVI melanoma) was 8.53 µM and the TGI (NCI-H23 lung) was 32.2 µM. The TGI (HCT-116 colon) was 21.1 µM, the TGI (HT29 colon) was 14.8 µM and the TGI (MDA-MB-231 breast) was 23.8 µM.

From PubChem BioAssay (NCI)
